Results as given in ChEMBL document CHEMBL5518164, “Membrane-permeable tenofovir-di- and monophosphate analogues” (Eur J Med Chem, 2024).
pEC50: −log10 of the molar value. Active and inactive are the calls of the source. The calls are words filed in the database; no cut-off is given here.

Legend:
[1] = system: Human immunodeficiency virus 1; assay: Antiviral activity against HIV-1 HE infected in wild type human CEM/0 cells assessed as inhibition of virus-induced giant cell formation incubated for 4 to 5 days by light microscopy; assay type: functional, organism-based; settings: Human immunodeficiency virus 1, HE, CCRF-CEM
[2] = target: T1, DNA polymerase alpha catalytic subunit (Homo sapiens) (UniProt P09884); assay: Substrate activity at human DNA polymerase alpha assessed as n+1 band formation incubated for 60 mins in presence of primer/template mixture and dNTPs by primer extension assay based fluorescence analysis
T1 sequence (whole entry): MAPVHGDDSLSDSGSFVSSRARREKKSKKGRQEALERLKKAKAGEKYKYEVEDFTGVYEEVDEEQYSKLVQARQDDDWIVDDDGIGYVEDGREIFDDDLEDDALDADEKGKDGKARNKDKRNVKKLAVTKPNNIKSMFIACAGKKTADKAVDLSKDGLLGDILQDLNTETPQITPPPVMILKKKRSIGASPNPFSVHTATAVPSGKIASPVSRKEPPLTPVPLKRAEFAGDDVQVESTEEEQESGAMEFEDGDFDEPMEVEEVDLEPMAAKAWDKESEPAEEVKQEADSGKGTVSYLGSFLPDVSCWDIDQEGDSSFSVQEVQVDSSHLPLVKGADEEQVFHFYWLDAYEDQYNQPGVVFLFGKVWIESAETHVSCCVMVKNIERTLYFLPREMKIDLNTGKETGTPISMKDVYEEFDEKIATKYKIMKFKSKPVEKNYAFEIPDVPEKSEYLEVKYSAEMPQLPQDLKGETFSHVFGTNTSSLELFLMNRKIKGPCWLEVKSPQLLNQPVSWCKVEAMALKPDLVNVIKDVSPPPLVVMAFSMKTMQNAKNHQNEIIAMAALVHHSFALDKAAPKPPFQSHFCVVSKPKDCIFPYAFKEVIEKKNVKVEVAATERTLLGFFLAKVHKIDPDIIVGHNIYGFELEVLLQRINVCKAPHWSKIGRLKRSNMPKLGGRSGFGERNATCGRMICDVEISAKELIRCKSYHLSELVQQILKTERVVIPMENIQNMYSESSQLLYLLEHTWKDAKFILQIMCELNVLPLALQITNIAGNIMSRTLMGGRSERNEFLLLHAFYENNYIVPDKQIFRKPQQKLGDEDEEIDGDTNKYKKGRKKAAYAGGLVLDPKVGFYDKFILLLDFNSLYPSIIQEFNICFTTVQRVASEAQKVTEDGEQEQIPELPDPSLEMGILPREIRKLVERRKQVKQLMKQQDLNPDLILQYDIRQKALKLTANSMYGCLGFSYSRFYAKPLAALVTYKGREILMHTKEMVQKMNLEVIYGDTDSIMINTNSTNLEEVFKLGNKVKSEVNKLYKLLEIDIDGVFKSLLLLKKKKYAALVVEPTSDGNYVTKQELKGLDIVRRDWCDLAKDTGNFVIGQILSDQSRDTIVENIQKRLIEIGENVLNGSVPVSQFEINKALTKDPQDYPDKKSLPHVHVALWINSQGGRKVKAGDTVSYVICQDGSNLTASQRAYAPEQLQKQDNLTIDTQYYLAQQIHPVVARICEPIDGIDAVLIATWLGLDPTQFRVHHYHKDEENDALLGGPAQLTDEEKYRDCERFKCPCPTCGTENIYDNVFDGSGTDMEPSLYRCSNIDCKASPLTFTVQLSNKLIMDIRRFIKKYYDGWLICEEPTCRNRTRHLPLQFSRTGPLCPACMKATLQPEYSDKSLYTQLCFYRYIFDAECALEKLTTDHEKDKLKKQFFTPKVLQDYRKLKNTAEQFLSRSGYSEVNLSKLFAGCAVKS

[3] = target: T2, DNA polymerase subunit gamma-1 (Homo sapiens) (UniProt P54098); assay: Substrate activity at human DNA polymerase gamma assessed as n+1 band formation incubated for 120 mins in presence of primer/template mixture and dNTPs by primer extension assay based fluorescence analysis
T2 sequence (whole entry): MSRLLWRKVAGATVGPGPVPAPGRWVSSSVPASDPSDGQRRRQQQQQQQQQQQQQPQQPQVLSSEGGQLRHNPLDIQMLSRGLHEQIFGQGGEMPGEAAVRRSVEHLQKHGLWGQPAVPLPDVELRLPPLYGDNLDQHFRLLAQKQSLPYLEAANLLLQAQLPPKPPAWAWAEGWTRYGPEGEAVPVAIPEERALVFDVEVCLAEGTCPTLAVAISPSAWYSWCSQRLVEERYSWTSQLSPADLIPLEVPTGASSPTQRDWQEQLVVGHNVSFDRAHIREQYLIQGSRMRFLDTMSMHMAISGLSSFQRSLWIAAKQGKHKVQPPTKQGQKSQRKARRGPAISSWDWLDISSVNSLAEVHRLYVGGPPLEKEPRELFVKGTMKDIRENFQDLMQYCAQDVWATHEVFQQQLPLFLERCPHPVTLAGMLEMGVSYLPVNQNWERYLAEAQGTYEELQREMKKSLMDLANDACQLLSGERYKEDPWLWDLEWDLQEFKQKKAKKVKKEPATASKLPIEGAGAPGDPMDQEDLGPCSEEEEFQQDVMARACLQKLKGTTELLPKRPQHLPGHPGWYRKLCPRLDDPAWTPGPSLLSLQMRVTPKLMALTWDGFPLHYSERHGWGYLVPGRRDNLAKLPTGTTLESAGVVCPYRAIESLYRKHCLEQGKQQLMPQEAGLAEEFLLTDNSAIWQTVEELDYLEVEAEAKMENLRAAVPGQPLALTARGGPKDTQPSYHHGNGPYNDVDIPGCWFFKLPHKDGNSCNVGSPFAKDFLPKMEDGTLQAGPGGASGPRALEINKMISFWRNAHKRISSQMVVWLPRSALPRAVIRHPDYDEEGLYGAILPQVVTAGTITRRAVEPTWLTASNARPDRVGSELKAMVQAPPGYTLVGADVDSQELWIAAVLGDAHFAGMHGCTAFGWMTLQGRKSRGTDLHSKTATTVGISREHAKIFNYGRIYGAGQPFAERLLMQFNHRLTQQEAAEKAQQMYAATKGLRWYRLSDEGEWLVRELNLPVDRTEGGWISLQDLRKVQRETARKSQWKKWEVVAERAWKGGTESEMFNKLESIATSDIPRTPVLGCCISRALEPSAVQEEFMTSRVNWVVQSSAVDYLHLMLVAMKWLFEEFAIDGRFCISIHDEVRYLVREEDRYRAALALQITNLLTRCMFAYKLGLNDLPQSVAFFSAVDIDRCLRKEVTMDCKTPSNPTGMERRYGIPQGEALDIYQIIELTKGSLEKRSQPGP

[4] = Cytotoxicity against human CEM cells assessed as inhibition of cell proliferation; assay type: toxicity, cell-based, CCRF-CEM
[5] = Half life of the compound in heparin-stabilized human plasma by HPLC analysis; assay type: ADME, cell-free
[6] = Lipophilicity of the compound assessed as retention time by RP-HPLC analysis; assay type: physicochemical
[7] = Selectivity index, ratio of CC50 for cytotoxicity against human CEM cells to EC50 for antiviral activity against HIV-2 ROD infected in thymidine kinase deficient human CEM cells; assay type: toxicity, cell-based; settings: read-out: Ratio CC50/EC50

pEC50 [1]	Activity [2]	Activity [3]	half-life [5]	Retention_time [6]	SMILES	CC50 [4]	selectivity ratio [7]
7.46	inactive	inactive	> 5 h	18.1 min	CCCCCCCCCCCCCCCCCCP(=O)(OCCCC)OP(=O)(O)CO[C@H](C)Cn1cnc2c(N)ncnc21 (stereo partly specified)	37.8 µM	14000
7.11	inactive	inactive	> 8 h	15.2 min	CCCCCCCCCCCCCCCCCCP(=O)(OCCCC)OP(=O)(O)OP(=O)(O)CO[C@H](C)Cn1cnc2c(N)ncnc21 (stereo partly specified)	44.6 µM	1350
7.33	inactive	inactive	> 8 h	15.5 min	CCCCCCCCCCCCCCCCCCOP(=O)(OCCCC)OP(=O)(O)OP(=O)(O)CO[C@H](C)Cn1cnc2c(N)ncnc21 (stereo partly specified)	44.3 µM	3690
